# Experiment: XRPD (Rietveld) polymorph determination of samples made by literature processes
# Format: physicochemical
# Settings: samples generated following referenced literature procedures; validated XRPD method
# Excerpt: A Rietveld analysis was developed that allowed quantitative determination of Form B in Form A down to a detection limit at 5%. Upon analysis, it became apparent that the desired polymorph, in any reasonable degree of purity, could not be produced by the known procedures, and indeed, even a specific ratio of polymorphs was not consistently produced by the known procedures. As discussed above, such a situation is highly undesirable from both a medical and a regulatory standpoint.
# All prior processes for producing norastemizole free base, described in art known to the applicants, were examined. The samples were generated following the referenced procedures and were tested using the validated XRPD method.
row,SMILES,"Polymorph Results, % Form B [%]"
1,Fc1ccc(Cn2c(NC3CCNCC3)nc3ccccc32)cc1 [H1632-4A],91
2,Fc1ccc(Cn2c(NC3CCNCC3)nc3ccccc32)cc1 [H1632-30A],100

# Next, values leading:
row,"Polymorph Results, % Form B [%]",SMILES
1,100,Fc1ccc(Cn2c(NC3CCNCC3)nc3ccccc32)cc1 [H1632-6A]
2,90,Fc1ccc(Cn2c(NC3CCNCC3)nc3ccccc32)cc1 [H1632-5A]
3,86,Fc1ccc(Cn2c(NC3CCNCC3)nc3ccccc32)cc1 [R1632-7A]

# Experiment: not given
# Settings: factor between polymorphs; cited from earlier work
row,SMILES,difference in bio-activity between form A and form B
1,CCCCCCCCCCCCCCCC(=O)OC[C@@H](NC(=O)C(Cl)Cl)[C@H](O)c1ccc([N+](=O)[O-])cc1 [Chloramphenicol-3-palmitate],eight

# — patent US6627646B2 (Sepracor Inc., priority 2001, dated 2003)
